# Assay results as given in the NIST ThermoML archive (doi:10.1021/je300938w).
# Numbers after ± are expanded uncertainties.
# Assay: wn = mass fraction of the nth substance listed
# Details: 303.15 K; 101 kPa; Liquid; Vibrating tube method; w1 = 0.2
row,SMILES,mass density [kg/m3]
1,OCCNCCO [diethanolamine] + O,1019.14 ± 0.051

# Same assay, conditions: 303.15 K; 101 kPa; Liquid; Vibrating tube method; w1 = 0.25
row,SMILES,mass density [kg/m3]
1,CC(O)CN (stereo unspecified) [1-amino-2-propanol] + O,1000.2 ± 0.096
2,CC(O)CNCC(C)O (stereo unspecified) [N-(2-hydroxypropyl)-2-hydroxy-1-propanamine] + O,1011.98 ± 0.1
3,OCCNCCO [diethanolamine] + O,1025.19 ± 0.055

# Same assay, conditions: 308.15 K; 101 kPa; Liquid; Concentric cylinders viscometry; w1 = 0.05
row,SMILES,viscosity [mPa·s]
1,CC(O)CN (stereo unspecified) [1-amino-2-propanol] + O,0.8761 ± 0.0068
2,CC(O)CNCC(C)O (stereo unspecified) [N-(2-hydroxypropyl)-2-hydroxy-1-propanamine] + O,0.8984 ± 0.0069
3,OCCNCCO [diethanolamine] + O,0.8569 ± 0.0067

# Same assay, conditions: 308.15 K; 101 kPa; Liquid; Concentric cylinders viscometry; w1 = 0.1
row,SMILES,viscosity [mPa·s]
1,CC(O)CN (stereo unspecified) [1-amino-2-propanol] + O,1.027 ± 0.0073
2,CC(O)CNCC(C)O (stereo unspecified) [N-(2-hydroxypropyl)-2-hydroxy-1-propanamine] + O,1.093 ± 0.0075
3,OCCNCCO [diethanolamine] + O,1.013 ± 0.0072

# Same assay, conditions: 308.15 K; 101 kPa; Liquid; Concentric cylinders viscometry; w1 = 0.15
row,SMILES,viscosity [mPa·s]
1,CC(O)CN (stereo unspecified) [1-amino-2-propanol] + O,1.215 ± 0.0081
2,CC(O)CNCC(C)O (stereo unspecified) [N-(2-hydroxypropyl)-2-hydroxy-1-propanamine] + O,1.38 ± 0.0087
3,OCCNCCO [diethanolamine] + O,1.174 ± 0.0076

# Same assay, conditions: 308.15 K; 101 kPa; Liquid; Concentric cylinders viscometry; w1 = 0.2
row,SMILES,viscosity [mPa·s]
1,CC(O)CN (stereo unspecified) [1-amino-2-propanol] + O,1.468 ± 0.0092
2,CC(O)CNCC(C)O (stereo unspecified) [N-(2-hydroxypropyl)-2-hydroxy-1-propanamine] + O,1.695 ± 0.01
3,OCCNCCO [diethanolamine] + O,1.455 ± 0.0086

# Same assay, conditions: 308.15 K; 101 kPa; Liquid; Concentric cylinders viscometry; w1 = 0.25
row,SMILES,viscosity [mPa·s]
1,CC(O)CN (stereo unspecified) [1-amino-2-propanol] + O,1.799 ± 0.011
2,CC(O)CNCC(C)O (stereo unspecified) [N-(2-hydroxypropyl)-2-hydroxy-1-propanamine] + O,2.167 ± 0.013
3,OCCNCCO [diethanolamine] + O,1.795 ± 0.0098

# Same assay, conditions: 308.15 K; 101 kPa; Liquid; Vibrating tube method; w1 = 0.05
row,SMILES,mass density [kg/m3]
1,CC(O)CN (stereo unspecified) [1-amino-2-propanol] + O,995.386 ± 0.041
2,CC(O)CNCC(C)O (stereo unspecified) [N-(2-hydroxypropyl)-2-hydroxy-1-propanamine] + O,997.454 ± 0.042
3,OCCNCCO [diethanolamine] + O,1000.3 ± 0.041

# Same assay, conditions: 308.15 K; 101 kPa; Liquid; Vibrating tube method; w1 = 0.1
row,SMILES,mass density [kg/m3]
1,CC(O)CN (stereo unspecified) [1-amino-2-propanol] + O,995.747 ± 0.05
2,CC(O)CNCC(C)O (stereo unspecified) [N-(2-hydroxypropyl)-2-hydroxy-1-propanamine] + O,1000.19 ± 0.049
3,OCCNCCO [diethanolamine] + O,1005.77 ± 0.044

# Same assay, conditions: 308.15 K; 101 kPa; Liquid; Vibrating tube method; w1 = 0.15
row,SMILES,mass density [kg/m3]
1,CC(O)CN (stereo unspecified) [1-amino-2-propanol] + O,996.159 ± 0.062
2,CC(O)CNCC(C)O (stereo unspecified) [N-(2-hydroxypropyl)-2-hydroxy-1-propanamine] + O,1003.35 ± 0.063
3,OCCNCCO [diethanolamine] + O,1011.42 ± 0.047

# Same assay, conditions: 308.15 K; 101 kPa; Liquid; Vibrating tube method; w1 = 0.2
row,SMILES,mass density [kg/m3]
1,CC(O)CN (stereo unspecified) [1-amino-2-propanol] + O,996.833 ± 0.078
2,CC(O)CNCC(C)O (stereo unspecified) [N-(2-hydroxypropyl)-2-hydroxy-1-propanamine] + O,1006.41 ± 0.081
3,OCCNCCO [diethanolamine] + O,1017.18 ± 0.051

# Same assay, conditions: 308.15 K; 101 kPa; Liquid; Vibrating tube method; w1 = 0.25
row,SMILES,mass density [kg/m3]
1,CC(O)CN (stereo unspecified) [1-amino-2-propanol] + O,997.78 ± 0.097
2,CC(O)CNCC(C)O (stereo unspecified) [N-(2-hydroxypropyl)-2-hydroxy-1-propanamine] + O,1009.69 ± 0.1
3,OCCNCCO [diethanolamine] + O,1023.11 ± 0.054

# Same assay, conditions: 313.15 K; 101 kPa; Liquid; Concentric cylinders viscometry; w1 = 0.05
row,SMILES,viscosity [mPa·s]
1,CC(O)CN (stereo unspecified) [1-amino-2-propanol] + O,0.7937 ± 0.0066
2,CC(O)CNCC(C)O (stereo unspecified) [N-(2-hydroxypropyl)-2-hydroxy-1-propanamine] + O,0.8189 ± 0.0067
3,OCCNCCO [diethanolamine] + O,0.7792 ± 0.0065

# Same assay, conditions: 313.15 K; 101 kPa; Liquid; Concentric cylinders viscometry; w1 = 0.1
row,SMILES,viscosity [mPa·s]
1,CC(O)CN (stereo unspecified) [1-amino-2-propanol] + O,0.9275 ± 0.007
2,CC(O)CNCC(C)O (stereo unspecified) [N-(2-hydroxypropyl)-2-hydroxy-1-propanamine] + O,0.9814 ± 0.0072
3,OCCNCCO [diethanolamine] + O,0.9142 ± 0.0069

# Same assay, conditions: 313.15 K; 101 kPa; Liquid; Concentric cylinders viscometry; w1 = 0.15
row,SMILES,viscosity [mPa·s]
1,CC(O)CN (stereo unspecified) [1-amino-2-propanol] + O,1.084 ± 0.0076
2,CC(O)CNCC(C)O (stereo unspecified) [N-(2-hydroxypropyl)-2-hydroxy-1-propanamine] + O,1.224 ± 0.0081
3,OCCNCCO [diethanolamine] + O,1.051 ± 0.0073

# Same assay, conditions: 313.15 K; 101 kPa; Liquid; Concentric cylinders viscometry; w1 = 0.2
row,SMILES,viscosity [mPa·s]
1,CC(O)CN (stereo unspecified) [1-amino-2-propanol] + O,1.295 ± 0.0086
2,CC(O)CNCC(C)O (stereo unspecified) [N-(2-hydroxypropyl)-2-hydroxy-1-propanamine] + O,1.485 ± 0.0093
3,OCCNCCO [diethanolamine] + O,1.295 ± 0.0081

# Same assay, conditions: 313.15 K; 101 kPa; Liquid; Concentric cylinders viscometry; w1 = 0.25
row,SMILES,viscosity [mPa·s]
1,CC(O)CN (stereo unspecified) [1-amino-2-propanol] + O,1.574 ± 0.0099
2,CC(O)CNCC(C)O (stereo unspecified) [N-(2-hydroxypropyl)-2-hydroxy-1-propanamine] + O,1.871 ± 0.011
3,OCCNCCO [diethanolamine] + O,1.585 ± 0.009

# Same assay, conditions: 313.15 K; 101 kPa; Liquid; Vibrating tube method; w1 = 0.05
row,SMILES,mass density [kg/m3]
1,CC(O)CN (stereo unspecified) [1-amino-2-propanol] + O,993.483 ± 0.042
2,CC(O)CNCC(C)O (stereo unspecified) [N-(2-hydroxypropyl)-2-hydroxy-1-propanamine] + O,995.576 ± 0.042
3,OCCNCCO [diethanolamine] + O,998.43 ± 0.041

# Same assay, conditions: 313.15 K; 101 kPa; Liquid; Vibrating tube method; w1 = 0.1
row,SMILES,mass density [kg/m3]
1,CC(O)CN (stereo unspecified) [1-amino-2-propanol] + O,993.738 ± 0.05
2,CC(O)CNCC(C)O (stereo unspecified) [N-(2-hydroxypropyl)-2-hydroxy-1-propanamine] + O,998.214 ± 0.05
3,OCCNCCO [diethanolamine] + O,1003.83 ± 0.043

# Same assay, conditions: 313.15 K; 101 kPa; Liquid; Vibrating tube method; w1 = 0.15
row,SMILES,mass density [kg/m3]
1,CC(O)CN (stereo unspecified) [1-amino-2-propanol] + O,994.005 ± 0.063
